Data set [1] deals with Staphylococcus aureus. Description: Antibacterial activity against methicillin-resistant and […] Staphylococcus aureus ATCC 700699 by CLSI broth microdilution method. The class given is functional. The note with it: Mu50 ATCC 700699. On the technique in general: Broth dilution looks for growth in wells or tubes with falling amounts of substance.
Data set [2] has as its system Candida albicans. Description: Antifungal activity against hyphae form of Candida albicans ATCC 24433 assessed as diameter of zone inhibition at 1 mM incubated for overnight by disc diffusion method. The class given is functional. The note with it: read-out: DIZ. Background: Agar diffusion results depend on both activity and mobility in agar.
For another data set, the system named is Escherichia coli. Kind of data set: Antibacterial activity against Escherichia coli ATCC 25922 by CLSI broth microdilution method. The class given is functional, organism-based.
In a further data set the test system is Bacillus subtilis. Kind of data set: Antibacterial activity against Bacillus subtilis ATCC 169 by CLSI broth microdilution method. The class given is functional.
For data set [3], the system named is Mycobacterium tuberculosis. Kind of data set: Antibacterial activity against Mycobacterium tuberculosis H37Rv by CLSI broth microdilution method. The class given is functional, organism-based.
Data set [4] deals with Enterococcus faecalis. Kind of data set: Antibacterial activity against Enterococcus faecalis ATCC 51299 by CLSI broth microdilution method. The class given is functional, organism-based.
Data set [5] concerns Staphylococcus aureus. Description: Antibacterial activity against Staphylococcus aureus ATCC 29213 by CLSI broth microdilution method. The class given is functional.
Data set [6] concerns Enterococcus faecium. Kind of data set: Antibacterial activity against Enterococcus faecium ATCC 35667 by CLSI broth microdilution method. The class given is functional, organism-based.
Data set [7] has as its system Enterococcus faecalis. Kind of data set: Antibacterial activity against Enterococcus faecalis ATCC 29212 by CLSI broth microdilution method. The class given is functional, organism-based.
The test system of data set [8] is Candida albicans. Kind of data set: Fungicidal activity against hyphae form of Candida albicans ATCC 24433 assessed as log reduction in bacterial viability at 400 uM measured after 6 hrs by time kill assay. The class given is functional.
In the next data set the test system is THP-1. Description: Cytotoxicity against human THP1 cells assessed as reduction in cell viability up to 100 uM measured after 48 hrs by resazurin based fluorescence assay. The note with it: thp-1, 48 h. (In general: Alamar Blue is a resazurin reagent that responds to reducing activity.)
Data set [9] relates to Enterococcus faecium. Kind of data set: Antibacterial activity against Enterococcus faecium ATCC 700221 by CLSI broth microdilution method. The class given is functional, organism-based.
In data set [10] the test system is Candida albicans. Kind of data set: Antifungal activity against hyphae form of Candida albicans ATCC 24433 assessed inhibition of visible microbe growth incubated for overnight by CLSI microbroth dilution method. The class given is functional.
The next data set deals with Huh-7. Kind of data set: Cytotoxicity against human HuH7 cells assessed as reduction in cell viability up to 100 uM measured after 48 hrs by resazurin based fluorescence assay. The note with it: huh-7, 48 h.
For data set [11], the system named is Saccharomyces cerevisiae. Kind of data set: Antifungal activity against Saccharomyces cerevisiae assessed as diameter of zone inhibition incubated for overnight by disc diffusion method. The class given is functional.
Data set [12] is described as follows: Cytotoxicity against human CLS54 cells assessed as reduction in cell viability up to 100 uM measured after 48 hrs by resazurin based fluorescence assay.
Data set [13] concerns Saccharomyces cerevisiae. Kind of data set: Antifungal activity against Saccharomyces cerevisiae incubated for overnight by disc diffusion method. The class given is functional, organism-based.
Data set [14] deals with Candida albicans. Kind of data set: Antifungal activity against hyphae form of Candida albicans ATCC 24433 incubated for overnight by disc diffusion method. The class given is functional, organism-based.
The test system of data set [15] is Candida albicans. Description: Fungicidal activity against hyphae form of Candida albicans ATCC 24433 assessed as reduction in bacterial viability at 474 uM measured after 6 hrs by time kill assay. The class given is functional, organism-based.

This is an account of results in ChEMBL document CHEMBL4627354, “Antifungal polyketide derivatives from the endophytic fungus Aplosporella javeedii” (Bioorg Med Chem, 2020).

Molecules are shown by their SMILES. Converted amounts (≈) assume the structure as drawn. The source made the active and inactive calls. No cut-off for these calls is given here.

In general, MIC refers to the lowest concentration found to suppress growth. `CCCCCc1cc(O)c(C=O)c(O)c1C`: the MIC against Staphylococcus aureus [1] is 50 µM (≈ 11.1 µg/mL); with Bacillus subtilis, 25 µM (≈ 5.56 µg/mL); in the data set on Staphylococcus aureus [5], 50 µM (≈ 11.1 µg/mL); in the data set with Candida albicans [10] it was 100 µM (≈ 22.2 µg/mL). In the data set on Candida albicans [2], the zone of inhibition at 1000 µM turned out to be 8 mm. Also, the outcome (in the data set on Escherichia coli; in data set [3]; with Enterococcus faecalis [4]; in the data set on Enterococcus faecium [6]; with Enterococcus faecalis [7]; with Enterococcus faecium [9]) was inactive. The “log(activity)” value in the data set on Candida albicans [8] amounted to 3.5. For the same molecule, the Activity entry (in the data set on THP-1; with Huh-7; in [12]) was “Non-Toxic” in each case. Moreover, the “diameter of the inhibition zone (DIZ)” value in the data set with Saccharomyces cerevisiae [11] turned out to be 18 mm.

On to `Cc1c(CCCCC(=O)O)cc(O)c(C=O)c1O`, for which the outcome (in the data set with Staphylococcus aureus [1]; in the data set with Escherichia coli; in the data set with Bacillus subtilis; in [3]; with Enterococcus faecalis [4]; in the data set with Saccharomyces cerevisiae [13]) was inactive. Also, the result in the data set on Staphylococcus aureus [5], with Enterococcus faecium [6], with Enterococcus faecalis [7], in the data set on Candida albicans [14] and with Enterococcus faecium [9] was inactive.

On to `Cc1c(CCC(=O)O)cc(O)c(C=O)c1O`, for which the MIC in the data set on Staphylococcus aureus [1] turned out to be 50 µM (≈ 11.2 µg/mL); against Staphylococcus aureus [5] it was 25 µM (≈ 5.61 µg/mL). The result (with Escherichia coli; in the data set with Bacillus subtilis; in data set [3]; with Enterococcus faecalis [4]; in the data set on Saccharomyces cerevisiae [13]; in the data set on Enterococcus faecium [6]) was inactive. Moreover, the result with Enterococcus faecalis [7], with Candida albicans [14] and in the data set with Enterococcus faecium [9] was inactive.

In the case of `Cc1c(CCCCCO)cc(O)c(C=O)c1O`, the outcome (in the data set on Staphylococcus aureus [1]; in the data set on Escherichia coli; in the data set with Bacillus subtilis; in data set [3]; in the data set with Enterococcus faecalis [4]; with Saccharomyces cerevisiae [13]) was inactive. In addition, the result with Staphylococcus aureus [5], in the data set with Enterococcus faecium [6], with Enterococcus faecalis [7], in the data set on Candida albicans [14] and in the data set with Enterococcus faecium [9] was inactive.

Regarding `Cc1c(CCCC(O)CO)cc(O)c(C=O)c1O` (stereo unspecified), the result (in the data set on Staphylococcus aureus [1]; in the data set on Escherichia coli; in the data set on Bacillus subtilis; in data set [3]; with Enterococcus faecalis [4]; in the data set with Saccharomyces cerevisiae [13]) was inactive. The outcome with Staphylococcus aureus [5], in the data set on Enterococcus faecium [6], with Enterococcus faecalis [7], in the data set with Candida albicans [14] and with Enterococcus faecium [9] was inactive.

As to `CN[C@H]1C[C@@H](N)[C@H](O)[C@@H](O[C@@H]2O[C@H](CO)[C@H](O)[C@@H]3O[C@@]4(O[C@H]23)O[C@H]([C@H](N)CO)[C@H](O)[C@H](O)[C@H]4O)[C@@H]1O`, the outcome in the data set on Candida albicans [15] was Active.
